Results on eleven compounds are retold here after US4570006A, “Amidine compound, process for producing same and anti-complement agent comprising same” (Torii & Co. Ltd., priority 1981, dated 1986).

In one assay the target is Thrombin (Homo sapiens, UniProt P00734). The assay can be described thus: biochemical. Conditions: TAME hydrolysis; read-out: ID50, thrombin.
In another assay the target is T1, Cls (Homo sapiens, UniProt P09871).
T1 sequence (P09871 438-688 limits assumed): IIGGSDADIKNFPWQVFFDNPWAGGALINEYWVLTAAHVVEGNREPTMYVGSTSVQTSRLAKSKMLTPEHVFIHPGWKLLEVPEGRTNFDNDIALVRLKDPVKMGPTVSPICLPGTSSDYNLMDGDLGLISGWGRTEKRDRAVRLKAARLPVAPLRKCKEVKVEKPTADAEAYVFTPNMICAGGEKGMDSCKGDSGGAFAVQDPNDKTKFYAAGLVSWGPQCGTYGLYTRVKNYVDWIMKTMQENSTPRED
T1 sequence (P09871 16-437 limits assumed): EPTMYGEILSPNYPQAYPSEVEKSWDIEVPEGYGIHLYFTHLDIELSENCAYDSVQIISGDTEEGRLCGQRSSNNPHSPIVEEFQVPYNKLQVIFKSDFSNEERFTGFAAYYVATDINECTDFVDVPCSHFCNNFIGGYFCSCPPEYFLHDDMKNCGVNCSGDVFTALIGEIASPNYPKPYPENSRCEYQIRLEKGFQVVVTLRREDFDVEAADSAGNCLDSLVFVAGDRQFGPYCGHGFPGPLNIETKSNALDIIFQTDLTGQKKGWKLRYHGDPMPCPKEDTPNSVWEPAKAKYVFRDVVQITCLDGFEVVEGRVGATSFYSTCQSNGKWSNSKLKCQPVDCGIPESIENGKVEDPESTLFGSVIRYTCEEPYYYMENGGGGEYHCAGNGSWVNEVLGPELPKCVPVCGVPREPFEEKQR
The assay can be described thus: Anti-Cl esterase activity, Cls (ATEE hydrolysis). Format: biochemical. Conditions: hydrolysis of ATEE; read-out: Anti-Cl activity, Cls (50% inhibition). On the procedure: The anti-Cl esterase (Clr, Cls) activity was determined according to the method of Okamura et al. [K. Okamura, M. Muramatsu and B. Fujii, Biochem. Biophys. […] The figures in Table 2 have the following meanings:
Cls: Molar concentration of the test compound which inhibits 50% of the ability of Cls to hydrolyse ATEE (acetyltyrosin ethyl ester).

A further assay has as its target T2, Trypsin (Bos taurus, UniProt P00760).
T2 sequence (P00760 24-246): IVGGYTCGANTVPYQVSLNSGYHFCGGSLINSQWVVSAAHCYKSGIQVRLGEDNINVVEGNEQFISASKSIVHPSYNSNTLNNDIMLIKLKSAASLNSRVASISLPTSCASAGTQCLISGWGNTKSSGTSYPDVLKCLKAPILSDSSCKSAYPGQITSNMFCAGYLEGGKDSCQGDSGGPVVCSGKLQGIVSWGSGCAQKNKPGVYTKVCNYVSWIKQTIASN
The assay can be described thus: Anti-trypsin activity (inhibition of TAME hydrolysis). It counts as biochemical. To be noted: read-out: ID50, trypsin. The method in brief:
(§1)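 Inhibition of enzymatic TAME (tosylarginine methyl ester) hydrolysis, per Muramatsu et al. Values are ID50, the molar concentration of compound inhibiting 50% of each enzyme's TAME-hydrolysing activity.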

A further assay concerns the target T3, Clr (Homo sapiens, UniProt P00736).
T3 sequence (P00736 464-705 limits assumed): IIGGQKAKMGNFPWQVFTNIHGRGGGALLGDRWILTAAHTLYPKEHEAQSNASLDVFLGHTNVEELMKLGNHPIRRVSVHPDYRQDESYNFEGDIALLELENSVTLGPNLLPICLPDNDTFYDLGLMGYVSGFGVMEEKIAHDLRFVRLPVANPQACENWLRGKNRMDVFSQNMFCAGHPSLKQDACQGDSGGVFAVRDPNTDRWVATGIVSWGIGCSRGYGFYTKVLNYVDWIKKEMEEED
T3 sequence (P00736 18-463 limits assumed): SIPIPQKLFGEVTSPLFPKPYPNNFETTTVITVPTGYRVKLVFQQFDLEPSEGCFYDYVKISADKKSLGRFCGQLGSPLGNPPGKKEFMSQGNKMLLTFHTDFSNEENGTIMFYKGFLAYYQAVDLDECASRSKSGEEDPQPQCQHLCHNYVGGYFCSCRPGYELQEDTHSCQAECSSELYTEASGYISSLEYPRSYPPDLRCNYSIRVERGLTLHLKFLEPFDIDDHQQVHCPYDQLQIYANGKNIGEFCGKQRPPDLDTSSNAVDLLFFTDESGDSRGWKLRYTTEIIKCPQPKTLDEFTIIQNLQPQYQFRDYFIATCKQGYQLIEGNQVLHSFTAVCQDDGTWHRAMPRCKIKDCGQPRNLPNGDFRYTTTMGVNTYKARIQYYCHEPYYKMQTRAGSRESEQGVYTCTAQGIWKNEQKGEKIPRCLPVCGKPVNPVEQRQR
The assay can be described thus: Anti-Cl esterase activity, Clr (AAME hydrolysis). It counts as biochemical. To be noted: hydrolysis of AAME; read-out: Anti-Cl activity, Clr (ID50). On the procedure: The anti-Cl esterase ([…]) activity was determined according to the method of Okamura et al. [K. Okamura, M. Muramatsu and B. Fujii, Biochem. Biophys.

The next assay has as its system Kallikrein. The assay can be described thus: Anti-kallikrein activity (inhibition of TAME hydrolysis). It counts as biochemical. To be noted: read-out: ID50, kallikrein. The method in brief: as §1
A further assay addresses Plasmin (Homo sapiens, UniProt P00747). Description: Anti-plasmin activity (inhibition of TAME hydrolysis). It counts as biochemical. To be noted: read-out: ID50, plasmin. The procedure, abridged:
as §1

Another assay deals with complement. The assay can be described thus: Inhibition of complement mediated hemolysis. Format: cell-based.

Some results are limits rather than exact numbers.

Chain of Plasmin (P00747 581-810 limits assumed, species assumed): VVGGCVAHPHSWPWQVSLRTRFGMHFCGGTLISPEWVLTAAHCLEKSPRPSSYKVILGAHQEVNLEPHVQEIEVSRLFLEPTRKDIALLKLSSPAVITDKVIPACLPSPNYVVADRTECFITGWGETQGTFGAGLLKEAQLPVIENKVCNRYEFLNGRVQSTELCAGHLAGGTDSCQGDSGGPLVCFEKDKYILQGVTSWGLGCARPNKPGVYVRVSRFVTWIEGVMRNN
Chain of Plasmin (P00747 97-580 limits assumed, species assumed): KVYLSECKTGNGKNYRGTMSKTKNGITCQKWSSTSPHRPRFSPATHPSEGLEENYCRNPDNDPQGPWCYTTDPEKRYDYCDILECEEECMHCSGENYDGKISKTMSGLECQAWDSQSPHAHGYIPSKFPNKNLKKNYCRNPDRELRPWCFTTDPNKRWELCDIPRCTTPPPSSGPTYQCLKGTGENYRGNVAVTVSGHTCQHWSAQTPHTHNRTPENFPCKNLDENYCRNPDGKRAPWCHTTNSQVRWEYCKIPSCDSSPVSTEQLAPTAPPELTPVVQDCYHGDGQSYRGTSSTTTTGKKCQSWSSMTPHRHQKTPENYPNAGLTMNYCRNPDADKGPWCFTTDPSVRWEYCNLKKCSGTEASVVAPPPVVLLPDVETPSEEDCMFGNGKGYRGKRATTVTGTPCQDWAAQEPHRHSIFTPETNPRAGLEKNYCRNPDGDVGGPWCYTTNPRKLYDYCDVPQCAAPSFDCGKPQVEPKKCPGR

On to `COC(=O)c1cc(C(=N)N)ccc1OC(=O)c1ccc(CNC(=O)OCc2ccccc2)cc1` [Compound 59], for which the IC50 is 4000 nM on Thrombin; 300 nM at Cls; 500 nM at Trypsin; 2000 nM on Clr; 700 nM with Kallikrein; 70 nM on Plasmin. Further, the “Inhibition of complement mediated hemolysis (%)” value (shortened to “Inhibition … (%)”) is given as 100% in the assay on complement (compound at 1 × 10^-4), 100% in the assay with complement (compound at 1 × 10^-5), 76.0% in the assay with complement (compound at 1 × 10^-6) and 15.6% with complement (compound at 1 × 10^-7).
With `N=C(N)c1cc(Br)c(OC(=O)c2ccc3c(c2)OCO3)c(Br)c1` [Compound 47, 4-amidino-2,6-dibromophenyl 3,4-methylenedioxybenzoate], the IC50 at Thrombin is more than 10000 nM; on Cls it was 30 nM; on Trypsin, more than 10000 nM; at Clr, more than 10000 nM; with Kallikrein, more than 10000 nM; on Plasmin, more than 10000 nM. Also, the “Inhibition … (%)” value is recorded as 33.5% in the assay on complement (compound at 1 × 10^-4), 10.4% in the assay with complement (compound at 1 × 10^-5), 13.4% in the assay with complement (compound at 1 × 10^-6) and 0% in the assay with complement (compound at 1 × 10^-7).
Consider `CC(=O)Nc1ccc(C(=O)Oc2ccc(C(=N)N)cc2C(=O)c2ccccc2)cc1` [Compound 56, 4-amidino-2-benzoylphenyl 4-acetylaminobenzoate], for which the IC50 on Thrombin is 60 nM; on Cls, 500 nM; on Trypsin it was 50 nM; at Clr, 1000 nM; in the assay with Kallikrein, 400 nM; at Plasmin it was 300 nM. Also, the “Inhibition … (%)” value with complement (compound at 1 × 10^-4) is on record as 99.1%; with complement (compound at 1 × 10^-5), 98.1%; in the assay with complement (compound at 1 × 10^-6), 88.1%; in the assay on complement (compound at 1 × 10^-7), 20.4%.
As for `Cc1cc(OC(=O)c2ccccc2)ccc1C(=N)N` [Compound 22, 4-amidino-3-methylphenyl benzoate], the IC50 on Thrombin was 2000 nM; on Cls it was more than 10000 nM; at Trypsin, more than 10000 nM; at Clr, 6000 nM; in the assay with Kallikrein, more than 10000 nM; at Plasmin, more than 10000 nM. The “Inhibition … (%)” value with complement (compound at 1 × 10^-4) was 22.8%; in the assay with complement (compound at 1 × 10^-5), 0%; in the assay with complement (compound at 1 × 10^-6), 0%; in the assay on complement (compound at 1 × 10^-7) it was 0%.
As for `N=C(N)c1ccc(OC(=O)[C@H]2CC[C@H](CNC(=O)OCc3ccccc3)CC2)c(C(=O)c2ccccc2)c1` [Compound 20], the IC50 at Thrombin was 500 nM; on Cls, 300 nM; on Trypsin, 1000 nM; on Clr it was more than 10000 nM; with Kallikrein, 600 nM; at Plasmin, 600 nM. Further, the “Inhibition … (%)” value stood at 96.8% in the assay on complement (compound at 1 × 10^-4), 80.3% with complement (compound at 1 × 10^-5), 13.0% with complement (compound at 1 × 10^-6) and 1.8% in the assay with complement (compound at 1 × 10^-7).
In the case of `N=C(N)c1ccc(OC(=O)CCCCCN)c(C(=O)c2ccccc2)c1` [Compound 13, 4-amidino-2-benzoylphenyl 6-aminocaproate], the IC50 at Thrombin, on Cls, at Trypsin, at Clr, with Kallikrein and at Plasmin was more than 10000 nM throughout. Moreover, the “Inhibition … (%)” value in the assay with complement (compound at 1 × 10^-4) amounted to 15.9%; in the assay with complement (compound at 1 × 10^-5), 9.8%; with complement (compound at 1 × 10^-6), 0%; with complement (compound at 1 × 10^-7) it was 0%.
`N=C(N)c1ccc(OC(=O)C=Cc2ccc3c(c2)OCO3)c([N+](=O)[O-])c1` [Compound 48]: the IC50 at Thrombin was 400 nM; at Cls it was 3000 nM; at Trypsin it was 2000 nM; on Clr, more than 10000 nM; in the assay with Kallikrein, 8000 nM; on Plasmin, 200 nM. Further, the “Inhibition … (%)” value in the assay on complement (compound at 1 × 10^-4) is listed as 94.0%; in the assay on complement (compound at 1 × 10^-5) it was 94.8%; in the assay on complement (compound at 1 × 10^-6), 75.3%; in the assay with complement (compound at 1 × 10^-7), 23.2%.
Turning to `COc1cc(C(=N)N)ccc1OC(=O)c1ccc(CNC(=O)OCc2ccccc2)cc1` [Compound 57, 4-amidino-2-methoxyphenyl 4-benzyloxycarbonylaminomethylbenzoate], the IC50 at Thrombin is 8000 nM; at Cls it was 2000 nM; at Trypsin, 2000 nM; at Clr, more than 10000 nM; with Kallikrein, 3000 nM; at Plasmin, 200 nM. For the same compound, the “Inhibition … (%)” value came to 70.5% with complement (compound at 1 × 10^-4), 14.8% with complement (compound at 1 × 10^-5), 2.3% in the assay on complement (compound at 1 × 10^-6) and 0% in the assay with complement (compound at 1 × 10^-7).
With `CC(C)(C)c1ccc(C(=O)Oc2ccc(C(=N)N)cc2C(=O)c2ccccc2)cc1` [Compound 39], the IC50 came to 200 nM on Thrombin; 200 nM at Cls; 10 nM on Trypsin; 400 nM at Clr; 400 nM in the assay with Kallikrein; 200 nM on Plasmin. The “Inhibition … (%)” value in the assay with complement (compound at 1 × 10^-4) came out at 0%; with complement (compound at 1 × 10^-5), 95.4%; in the assay on complement (compound at 1 × 10^-6), 96.8%; with complement (compound at 1 × 10^-7), 52.1%.
On to `CC(C)(C)c1ccc(C(=O)Oc2ccc(C(=N)N)cc2[N+](=O)[O-])cc1` [Compound 38], for which the IC50 on Thrombin came to 200 nM; on Cls, 300 nM; at Trypsin, 20 nM; on Clr, 300 nM; in the assay with Kallikrein it was 1000 nM; on Plasmin, 400 nM. Moreover, the “Inhibition … (%)” value with complement (compound at 1 × 10^-4) turned out to be 98.6%; in the assay on complement (compound at 1 × 10^-5), 100%; with complement (compound at 1 × 10^-6), 96.1%; in the assay on complement (compound at 1 × 10^-7), 37.2%.
Turning to `COc1ccc(C(=O)Oc2ccc(C(=N)N)cc2C(=O)c2ccccc2)cc1` [Compound 42], the IC50 amounted to 70 nM at Thrombin; 40 nM on Cls; 70 nM at Trypsin; 1000 nM on Clr; 300 nM in the assay with Kallikrein; 300 nM on Plasmin. Besides, the “Inhibition … (%)” value in the assay on complement (compound at 1 × 10^-4) stood at 100%; in the assay with complement (compound at 1 × 10^-5) it was 99.1%; with complement (compound at 1 × 10^-6), 70.0%; with complement (compound at 1 × 10^-7), 7.6%.
